Tests used:
S. atroolivaceus = assay: Growth inhibition of S. atroolivaceus by antibiotics; type: cell-based, Streptomyces atroolivaceus; conditions: for concentration for complete inhibition of growth: S. atroolivaceus; for sensitivity of S. atroolivaceus: in words
Protocol: S. atroolivaceus grows very well at 30° C.; it doesn't grow at temperature beyond 35° C. […] Thus, E. coli—Streptomyces shuttle vectors pOJ260 (suicide vector, Am^R) and pKC1139 (self-replicating vector, Am^R) were chosen to make the gene-disruption constructs pYC12 and pYC20, respectively. The concentration of antibiotic (Am) for selection of transformants/exconjugates is 50 μg/ml.

[1] = tested on: HELA S3, sarcoma 180, B-16, Colon 26, and leukemia P388; conditions: cited from earlier work

C=C(NC(=O)C(=C)NC(=O)c1csc(C2=N[C@@H]3c4csc(n4)[C@H]4NC(=O)c5csc(n5)[C@H]([C@](C)(O)[C@@H](C)O)NC(=O)[C@H]5CSC(=N5)/C(=C/C)NC(=O)[C@H]([C@@H](C)O)NC(=O)c5csc(n5)[C@]3(CC2)NC(=O)[C@H](C)NC(=O)C(=C)NC(=O)[C@H](C)NC(=O)[C@H]([C@@H](C)CC)N[C@@H]2C=Cc3c([C@H](C)O)cc(nc3[C@H]2O)C(=O)O[C@@H]4C)n1)C(N)=O [thiostrepton]
concentration for complete inhibition of growth (S. atroolivaceus): 3 µg/mL | sensitivity of S. atroolivaceus (S. atroolivaceus): highly sensitive

CN[C@@H]1[C@@H](O[C@H]2O[C@H](CO)[C@@H](N)[C@H](O)[C@H]2O)OC2C[C@@H](N)[C@@H](O[C@H]3[C@H](O)[C@@H](O)[C@H](N)C[C@@H]3N)OC2[C@@H]1O (stereo partly shown) [apramycin]
concentration for complete inhibition of growth (S. atroolivaceus): 10 µg/mL | sensitivity of S. atroolivaceus (S. atroolivaceus): sensitive | sensitivity of S. atroolivaceus (S. atroolivaceus; listed as apromycin): highly sensitive

C/C1=C\[C@@H](O)C(=O)/C=C/C=C\c2csc(n2)[C@@H](C)NC(=O)C[C@@]2(CC1)[S+]([O-])SC(=O)[C@]2(C)O (stereo partly shown) [Lnm, Leinamycin]
activity against drug-resistant tumors ([1]; murine models inoculated with tumors resistant to cisplatin, doxorubicin, mitomycin, or cyclophosphamide): active | antitumor activity ([1]; murine tumor models in vivo): potent antitumor activity
